Test results from ChEMBL document CHEMBL1137656, “Effects of serum on in vitro susceptibility testing of echinocandins” (Antimicrob Agents Chemother, 2007).
Numbered stars: 1 amine (or outer) side, 2 acyl side, 3 side chain; on linkers, the order of the positions; unused ones are H or OH. Bridge positions count the residues as written; N and C are the ends. Square brackets hold non-standard residues; d marks the D form. Peptide text beside a SMILES is read from it. * marks the point of attachment. hTyr(3S-OH,4S-OH,3'-OSO3H) = N[C@H](C(=O)O)[C@H](O)[C@@H](O)c1ccc(O)c(OS(=O)(=O)O)c1; pTerphenylCO(4''-OnC5H11) = CCCCCOc1ccc(-c2ccc(-c3ccc(C(=O)*)cc3)cc2)cc1; Orn(4R-OH,5R-OH) = O=C([C@H](C[C@@H](O)[C@@H](O)N[*:3])N[*:1])[*:2]; hTyr(3S-OH,4S-OH) = N[C@H](C(=O)O)[C@H](O)[C@@H](O)c1ccc(O)cc1; Pro(3S-OH,4S-Me) = C[C@H]1CN[C@H](C(=O)O)[C@H]1O; X1 = CCCCCOc1ccc(-c2cc(-c3ccc(C(=O)*)cc3)no2)cc1; Gln(3R-OH) = NC(=O)C[C@@H](O)[C@H](N)C(=O)O; Hyp = O=C(O)[C@@H]1C[C@@H](O)CN1

Key:
Type in all cases: functional
Aspergillus flavus [1] = assay: Antifungal activity against Aspergillus flavus isolate 0001-033 after 24 hrs by CLSI M38-A broth microdilution method in presence of RPMI 1640 medium; details: isolate 0001-033, 24 h
Nakaseomyces glabratus [2] = assay: Antifungal activity against Candida glabrata isolate 0049-038 after 24 hrs by CLSI M27-A2 broth microdilution method in presence of 50% human serum; details: isolate 0049-038, 24 h
Candida parapsilosis [3] = assay: Antifungal activity against Candida parapsilosis isolate 0011-013 after 24 hrs by CLSI M27-A2 broth microdilution method in presence of RPMI 1640 medium; details: Lodderomyces parapsilosis, isolate 0011-013, 24 h
Clavispora lusitaniae = assay: Ratio of MIC50 for Candida lusitaniae isolate 0015-049 in presence of 50% human serum to MIC50 for Candida lusitaniae isolate 0015-049 in presence of RPMI 1640 medium
Candida parapsilosis [4] = assay: Ratio of MIC50 for Candida parapsilosis isolate 0011-013 in presence of 50% human serum to MIC50 for Candida parapsilosis isolate 0011-013 in presence of RPMI 1640 medium
Candida parapsilosis [5] = assay: Antifungal activity against Candida parapsilosis ATCC 22019 after 24 hrs by CLSI M27-A2 broth microdilution method in presence of RPMI 1640 medium; details: Lodderomyces parapsilosis, ATCC 22019, 24 h
Candida tropicalis [6] = assay: Ratio of MIC50 for Candida tropicalis isolate 0022-021 in presence of 50% human serum to MIC50 for Candida tropicalis isolate 0022-021 in presence of RPMI 1640 medium
Aspergillus fumigatus [7] = assay: Antifungal activity against Aspergillus fumigatus isolate 0020-018 after 24 hrs by CLSI M38-A broth microdilution method in presence of RPMI 1640 medium; details: isolate 0020-018, 24 h
Aspergillus fumigatus [8] = assay: Antifungal activity against Aspergillus fumigatus isolate 0002-021 after 24 hrs by CLSI M38-A broth microdilution method in presence of 50% human serum; details: isolate 0002-021, 24 h
Candida parapsilosis [9] = assay: Ratio of MIC50 for Candida parapsilosis isolate 0014-074 in presence of 50% human serum to MIC50 for Candida parapsilosis isolate 0014-074 in presence of RPMI 1640 medium
Nakaseomyces glabratus [10] = assay: Antifungal activity against Candida glabrata isolate 0022-012 after 24 hrs by CLSI M27-A2 broth microdilution method in presence of RPMI 1640 medium; details: isolate 0022-012, 24 h
Candida parapsilosis [11] = assay: Antifungal activity against Candida parapsilosis isolate 0026-003 after 24 hrs by CLSI M27-A2 broth microdilution method in presence of RPMI 1640 medium; details: Lodderomyces parapsilosis, isolate 0026-003, 24 h
Aspergillus fumigatus [12] = assay: Antifungal activity against Aspergillus fumigatus isolate 0020-018 after 24 hrs by CLSI M38-A broth microdilution method in presence of 50% human serum; details: isolate 0020-018, 24 h
Candida parapsilosis [13] = assay: Antifungal activity against Candida parapsilosis isolate 0014-074 after 24 hrs by CLSI M27-A2 broth microdilution method in presence of 50% human serum; details: Lodderomyces parapsilosis, isolate 0014-074, 24 h
Candida albicans [14] = assay: Antifungal activity against Candida albicans isolate 0021-076 after 24 hrs by CLSI M27-A2 broth microdilution method in presence of RPMI 1640 medium; details: isolate 0021-076, 24 h
Candida albicans [15] = assay: Ratio of MIC50 for Candida albicans isolate 0012-025 in presence of 50% human serum to MIC50 for Candida albicans isolate 0012-025 in presence of RPMI 1640 medium
Candida parapsilosis [16] = assay: Antifungal activity against Candida parapsilosis ATCC 22019 after 24 hrs by CLSI M27-A2 broth microdilution method in presence of 50% human serum; details: Lodderomyces parapsilosis, ATCC 22019, 24 h
Nakaseomyces glabratus [17] = assay: Antifungal activity against Candida glabrata isolate 0049-038 after 24 hrs by CLSI M27-A2 broth microdilution method in presence of RPMI 1640 medium; details: isolate 0049-038, 24 h
Aspergillus terreus [18] = assay: Antifungal activity against Aspergillus terreus isolate 0031-087 after 48 hrs by CLSI M38-A broth microdilution method in presence of 50% human serum; details: isolate 0031-087, 48 h
Pichia kudriavzevii [19] = assay: Ratio of MIC50 for Candida krusei isolate 0013-054 in presence of 50% human serum to MIC50 for Candida krusei isolate 0013-054 in presence of RPMI 1640 medium
Aspergillus fumigatus [20] = assay: Antifungal activity against Aspergillus fumigatus isolate 0002-0016 after 24 hrs by CLSI M38-A broth microdilution method in presence of RPMI 1640 medium; details: isolate 0002-0016, 24 h
Aspergillus terreus [21] = assay: Ratio of MIC50 for Aspergillus terreus isolate 0031-087 in presence of 50% human serum to MIC50 for Aspergillus terreus isolate 0031-087 in presence of RPMI 1640 medium
Aspergillus fumigatus [22] = assay: Antifungal activity against Aspergillus fumigatus isolate 0002-020 after 24 hrs by CLSI M38-A broth microdilution method in presence of 50% human serum; details: isolate 0002-020, 24 h
Candida parapsilosis [23] = assay: Ratio of MIC50 for Candida parapsilosis isolate 0026-003 in presence of 50% human serum to MIC50 for Candida parapsilosis isolate 0026-003 in presence of RPMI 1640 medium
Candida tropicalis [24] = assay: Antifungal activity against Candida tropicalis isolate 0022-021 after 24 hrs by CLSI M27-A2 broth microdilution method in presence of RPMI 1640 medium; details: isolate 0022-021, 24 h
Candida albicans [25] = assay: Ratio of MIC50 for Candida albicans isolate 0021-076 in presence of 50% human serum to MIC50 for Candida albicans isolate 0021-076 in presence of RPMI 1640 medium
Pichia kudriavzevii [26] = assay: Antifungal activity against Candida krusei isolate 0013-054 after 24 hrs by CLSI M27-A2 broth microdilution method in presence of RPMI 1640 medium; details: isolate 0013-054, 24 h
Aspergillus niger = assay: Ratio of MIC50 for Aspergillus niger isolate 0001-073 in presence of 50% human serum to MIC50 for Aspergillus niger isolate 0001-073 in presence of RPMI 1640 medium
Candida tropicalis [27] = assay: Antifungal activity against Candida tropicalis isolate 0050-028 after 24 hrs by CLSI M27-A2 broth microdilution method in presence of RPMI 1640 medium; details: isolate 0050-028, 24 h
Aspergillus flavus [28] = assay: Antifungal activity against Aspergillus flavus isolate 0001-061 after 24 hrs by CLSI M38-A broth microdilution method in presence of RPMI 1640 medium; details: isolate 0001-061, 24 h
Aspergillus flavus [29] = assay: Ratio of MIC50 for Aspergillus flavus isolate 0001-033 in presence of 50% human serum to MIC50 for Aspergillus flavus isolate 0001-033 in presence of RPMI 1640 medium
Pichia kudriavzevii [30] = assay: Ratio of MIC50 for Candida krusei ATCC 6258 in presence of 50% human serum to MIC50 for Candida krusei ATCC 6258 in presence of RPMI 1640 medium

Row | MIC50 (Aspergillus flavus [1]) [µg/mL] | MIC50 (Nakaseomyces glabratus [2]) [µg/mL] | MIC50 (Candida parapsilosis [3]) [µg/mL] | MIC50 (Candida parapsilosis [5]) [µg/mL] | MIC50 (Aspergillus fumigatus [7]) [µg/mL] | MIC50 (Aspergillus fumigatus [8]) [µg/mL] | MIC50 (Nakaseomyces glabratus [10]) [µg/mL] | MIC50 (Candida parapsilosis [11]) [µg/mL] | MIC50 (Aspergillus fumigatus [12]) [µg/mL] | MIC50 (Candida parapsilosis [13]) [µg/mL] | MIC50 (Candida albicans [14]) [µg/mL] | MIC50 (Candida parapsilosis [16]) [µg/mL] | MIC50 (Nakaseomyces glabratus [17]) [µg/mL] | MIC50 (Aspergillus terreus [18]) [µg/mL] | Structure (SMILES) | Ratio (Clavispora lusitaniae) | Ratio (Candida parapsilosis [4]) | Ratio (Candida tropicalis [6]) | Ratio (Candida parapsilosis [9]) | Ratio (Candida albicans [15]) | Ratio (Pichia kudriavzevii [19]) | further results
1 | 0.125 | 1 | 0.0156 | 0.5 | 0.0156 | 1 | 0.0156 | 0.5 | 0.5 | 0.5 | 0.5 | 32 | 0.004 | 0.25 | CCCCCOc1ccc(-c2cc(-c3ccc(C(=O)N[C@H]4C[C@@H](O)[C@@H](O)NC(=O)[C@@H]5[C@@H](O)[C@@H](C)CN5C(=O)[C@H]([C@H](O)CC(N)=O)NC(=O)[C@H]([C@H](O)[C@@H](O)c5ccc(O)c(OS(=O)(=O)O)c5)NC(=O)[C@@H]5C[C@@H](O)CN5C(=O)[C@H]([C@@H](C)O)NC4=O)cc3)no2)cc1 [MICAFUNGIN] (X1-[Orn(4R-OH,5R-OH)]T[Hyp][hTyr(3S-OH,4S-OH,3'-OSO3H)][Gln(3R-OH)][Pro(3S-OH,4S-Me)]; lactam 1-C) | 256 | 256 | 128 | 32 | 64 | 64 | MIC50 (Aspergillus fumigatus [20]): 0.0313 µg/mL; Ratio (Aspergillus terreus [21]): 128; MIC50 (Aspergillus fumigatus [22]): 0.5 µg/mL; Ratio (Candida parapsilosis [23]): 128; MIC50 (Candida tropicalis [24]): 0.0156 µg/mL; Ratio (Candida albicans [25]): 128; MIC50 (Pichia kudriavzevii [26]): 0.125 µg/mL; Ratio (Aspergillus niger): 128; MIC50 (Candida tropicalis [27]): 0.25 µg/mL; MIC50 (Aspergillus flavus [28]): 0.125 µg/mL; Ratio (Aspergillus flavus [29]): 1024; Ratio (Pichia kudriavzevii [30]): 128
2 | 32 | 0.5 | 0.25 | 0.5 | 16 | 128 | 0.5 | 1 | 128 | 0.5 | 0.5 | 8 | 0.5 | 0.5 | CC[C@H](C)C[C@H](C)CCCCCCCCC(=O)N[C@H]1C[C@@H](O)[C@@H](NCCN)NC(=O)[C@@H]2[C@@H](O)CCN2C(=O)[C@H]([C@H](O)CCN)NC(=O)[C@H]([C@H](O)[C@@H](O)c2ccc(O)cc2)NC(=O)[C@@H]2C[C@@H](O)CN2C(=O)[C@H]([C@@H](C)O)NC1=O [CASPOFUNGIN] | 2 | 4 | 1 | 2 | 1 | 4 | MIC50 (Aspergillus fumigatus [20]): 8 µg/mL; Ratio (Aspergillus terreus [21]): 1; MIC50 (Aspergillus fumigatus [22]): 128 µg/mL; Ratio (Candida parapsilosis [23]): 8; MIC50 (Candida tropicalis [24]): 0.5 µg/mL; Ratio (Candida albicans [25]): 8; MIC50 (Pichia kudriavzevii [26]): 0.5 µg/mL; Ratio (Aspergillus niger): 512; MIC50 (Candida tropicalis [27]): 0.5 µg/mL; MIC50 (Aspergillus flavus [28]): 128 µg/mL; Ratio (Aspergillus flavus [29]): 4; Ratio (Pichia kudriavzevii [30]): 8

Row | Structure (SMILES) | MIC50 (Aspergillus flavus [1]) [µg/mL] | MIC50 (Nakaseomyces glabratus [2]) [µg/mL] | MIC50 (Candida parapsilosis [3]) [µg/mL] | MIC50 (Candida parapsilosis [5]) [µg/mL] | MIC50 (Aspergillus fumigatus [7]) [µg/mL] | MIC50 (Aspergillus fumigatus [8]) [µg/mL] | MIC50 (Nakaseomyces glabratus [10]) [µg/mL] | MIC50 (Candida parapsilosis [11]) [µg/mL] | MIC50 (Aspergillus fumigatus [12]) [µg/mL] | MIC50 (Candida parapsilosis [13]) [µg/mL] | MIC50 (Candida albicans [14]) [µg/mL] | MIC50 (Candida parapsilosis [16]) [µg/mL] | MIC50 (Nakaseomyces glabratus [17]) [µg/mL] | MIC50 (Aspergillus terreus [18]) [µg/mL] | Ratio (Clavispora lusitaniae) | Ratio (Candida parapsilosis [4]) | Ratio (Candida tropicalis [6]) | Ratio (Candida parapsilosis [9]) | Ratio (Candida albicans [15]) | Ratio (Pichia kudriavzevii [19]) | further results
3 | CCCCCOc1ccc(-c2ccc(-c3ccc(C(=O)N[C@H]4C[C@@H](O)[C@@H](O)NC(=O)[C@@H]5[C@@H](O)[C@@H](C)CN5C(=O)[C@H]([C@@H](C)O)NC(=O)[C@H]([C@H](O)[C@@H](O)c5ccc(O)cc5)NC(=O)[C@@H]5C[C@@H](O)CN5C(=O)[C@H]([C@@H](C)O)NC4=O)cc3)cc2)cc1 [ANIDULAFUNGIN] ({pTerphenylCO(4''-OnC5H11)}-[Orn(4R-OH,5R-OH)]T[Hyp][hTyr(3S-OH,4S-OH)]T[Pro(3S-OH,4S-Me)]; lactam 1-C) | 4 | 2 | 0.0313 | 0.5 | 0.5 | 128 | 0.0313 | 2 | 128 | 0.25 | 0.5 | 64 | 0.0625 | 0.25 | 8 | 64 | 128 | 64 | 16 | 32 | MIC50 (Aspergillus fumigatus [20]): 2 µg/mL; Ratio (Aspergillus terreus [21]): 16; MIC50 (Aspergillus fumigatus [22]): 0.5 µg/mL; Ratio (Candida parapsilosis [23]): 64; MIC50 (Candida tropicalis [24]): 0.0156 µg/mL; Ratio (Candida albicans [25]): 256; MIC50 (Pichia kudriavzevii [26]): 0.125 µg/mL; Ratio (Aspergillus niger): 512; MIC50 (Candida tropicalis [27]): 1 µg/mL; MIC50 (Aspergillus flavus [28]): 4 µg/mL; Ratio (Aspergillus flavus [29]): 32; Ratio (Pichia kudriavzevii [30]): 16
